From patent US9540418B2, “Polypeptide specifically binding to rare earth nanoparticles and use thereof” (University of Science and Technology of China, priority 2012, dated 2017)

Columns and labels:
[1] = Binding of FITC-RE-1 to UCN (time, concentration, pH, salt, temperature); details: 50 μg FITC-RE-1, 100 μg UCN
Experimental: 50 μg of FITC-RE-1 was incubated with 100 μg of UCN for different time periods (2 min, 10 min, 30 min, 120 min, and 720 min). Then, the amount of FITC-RE-1 fluorescent peptide binding to UCN was measured by using fluorescence spectrophotometer.
100 μg of UCN was incubated with FITC-RE-1 at various concentrations (5 μg, 10 μg, 25 μg, 50 μg, and 100 μg) for 1 hr. The excess and unbound peptides were washed off. The amount of FITC-RE-1 fluorescent peptide binding to UCN was measured by using fluorescence spectrophotometer.
(§1) 50 μg of FITC-RE-1 was incubated with 100 μg of UCN dissolved at different pH values (pH 3, 5, 7, and 10) for 1 hr. The excess and unbound peptides were washed off. The amount of FITC-RE-1 fluorescent peptide binding to UCN was measured by using fluorescence spectrophotometer.
as §1, with “salt ion concentrations (0 M, 0.15 M, 0.3 M,” for “pH values (pH 3, 5, 7,”, “0.5 M NaCl)” for “10)”
50 μg of FITC-RE-1 was incubated with 100 μg of UCN dissolved in water at different temperatures (25° C., 37° C., 55° C., and 80° C.) for 1 hr. […] The amount of FITC-RE-1 fluorescent peptide binding to UCN was measured by using fluorescence spectrophotometer.

HeLa-LC3 cells = test: RE-1 blocking of nanophosphor-induced autophagy (LC3 aggregates and vacuoles); type: cell-based; details: nanophosphors coated with RE-1, 24 hr
Experimental: The rare-earth upconversion nanophosphors (UCN, UCP, UCN-S) coated with RE-1 were prepared as follows: 50 μg, 10 μg, and 350 μg RE-1 was mixed with 100 μg UCN, UCP, or UCN-S, respectively, incubated at 37° C. for 2 hr, centrifuged at 12000 rpm, and then washed with water for 3 times to remove the excess and unbound RE-1 peptides. The resultant precipitate was resuspended in 100 μL water.
HeLa-LC3 cells were inoculated into a 96-well cell culturing plate at a density of about 1-2×10^4 cells/well, and cultured overnight for further use. At first, the medium was replaced with fresh DMEM medium, to which UCN, UCP, or UCN-S with or without the coating of RE-1 peptides was added at different concentrations (0 μg/mL, 10 μg/mL, 100 μg/mL, 1000 μg/mL). After culturing for 24 hr, the fluorescence generated by GFP reporter gene was observed, imaged, and measured under a fluorescence microscope.
The ability to induce cell autophagy was estimated by determining the numbers of LC3 aggregates and vacuoles.

HeLa cells [2] = test: Autophagosome formation in HeLa cells by transmission electron microscope; type: cell-based; details: 100 μg/mL UCN+RE-1 or UCP+RE-1, 24 hr
Experimental: HeLa cells were inoculated into a 24-well cell culturing plate at a density of about 3-5×10^4 cells/well, and cultured overnight for further use. At first, the medium was replaced with fresh DMEM medium, and then 100 μg/mL UCN, UCP, UCN+RE-1, or UCP+RE-1 was added. An equal volume of PBS was used as blank. After culturing for 24 hr, the cells were collected and in situ fixed with 2.5% glutaral-dimethyl arsine buffer (pH 7.4) at 4° C. for 1 hr, then fixed with 2% osmium tetroxide at room temperature for 1 hr, and then dehydrated with ethanol gradients. Then, the cell samples were embedded into epoxy resin (EPON812). The embedded cell samples were cut into ultrathin slices, which were stained with uranyl acetate and lead citrate, and observed and imaged under a transmission electron microscope (JEOL-1230, JEOL, Japan).

[3] = system: LC3 type II in mice liver; test: Western blotting of LC3 in mice livers after tail vein injection; type: in vivo; details: 300 μg (15 mg/kg) tail vein, 24 hr
Experimental: Western blotting is performed as follows: After an incubation of 24 h, the cells are collected and lysed with lysis buffer (purchased from Beyotime Biotechnology, China). The lysate is boiled in boiling water for 10 min, subjected to 15% SDS-PAGE, and then transferred to nylon membrane (purchased from Amersham Inc.) by a wet transfer. In the Western blotting, Anti-LC3 (Light Chain 3 Protein Antibody, purchased from Novus Inc., Catalog #: NB 100-2220) is used as primary antibody; GAPDH (purchased from Millipore Inc.) is used as internal reference; and Horseradish peroxidase (HRP) conjugated goat anti-rabbit IgG (H+L) (Goat Anti-Rabbit IgG (H+L), HRP Conjugate) (purchased from Promega Inc.) is used as secondary antibody.
Balb/c mice (purchased from SLAC Laboratory Animal (Shanghai, China), 6 weeks old, and weighed 20 g when used) were bred in a sterile housing, and then 300 μg (dosage: 15 mg/kg) UCN, UCN+PEG (containing 10 mg PEG), UCN+RE-1, UCP, UCP+RE-1, or UCP+AP-1 was injected through tail vein. An equal volume of normal saline was injected as a control. After 24 hr, the livers of the mice were removed and subjected to western blotting assay.

HeLa cells [4] = test: Effect of RE-1 analogues on cytotoxicity induced by UCN, UCP (MTT, PI staining); type: cell-based; details: 1 mg/mL, 24 hr
Experimental: MTT cell vitality assay is performed as follows: The cells to which samples have been added are cultured for 24 hr, and then 0.5 mg/mL MTT solution is added and cultured for 4 hr. The MTT solution in the well is discharged, and then 200 μL DMSO is added, followed by gently shaking the plate on a shaking table for 10 min. Detection is performed using microplate reader (ELX800, purchased from BIO-TEK) at a wavelength of 570 nm.
PI staining assay is performed as follows: The cells to which samples have been added are cultured for 24 hr, and then to the culture Hoechst 33342 (10 mM, purchased from Sigma, USA, Catalog #: B2261) and PI (Propidium Iodide) (10 mM, purchased from Beyotime Biotechnology, Catalog #: ST511) are added for 10 min of staining. Then, the cells are detected and photographed under a fluorescence microscope (Olympus IX71, purchased from Olympus). The number of the cells counted by this assay was 500.
HeLa cells were inoculated into 96-well cell culturing plate at a density of about 1-2×10^4 cells/well, and cultured overnight for further use. At first, the medium was replaced with fresh DMEM medium, and then 1 mg/mL UCN, UCP, UCN+PEG (containing 10 mg PEG), UCN+RE-1, UCP, UCP+RE-1, UCN+RE-2, UCN+RE-3, UCN+RE-5, UCP+RE-2, UCP+RE-3, or UCP+RE-5 were added, respectively. After culturing for 24 hr, MTT cell viability assay and PI staining were performed to detect the mortality of the cells.

Sequence: ACTARSPWICG [RE-1, RE-0 with terminal amino acids A and G added]
- binding to UCN at 2 min ([1]; 2 min): 50%
- binding to UCN at 10 min ([1]; 10 min): almost binding saturation
- inhibition of cell autophagy induced by UCN, UCP, and UCN-S (HeLa-LC3 cells): significantly inhibited
- inhibition of autophagosome formation induced by UCN, UCP (HeLa cells [2]): significantly inhibited
- effect of RE-1 coating of UCN and UCP on LC3 type II in mice liver [3]: significantly prevented the increase of LC3 type II
- inhibitory effect of coating on cytotoxicity induced by UCN and UCP (HeLa cells [4]): RE-1>RE-3>RE-5
